Data from patent US20230295200A1 (REGENTS OF THE UNIVERSITY OF MICHIGAN, priority 2022, published 2023).

Experiments:
[1] = biological target: T1, STAT6 protein (Homo sapiens, UniProt P42226); test: Fluorescence polarization (FP) binding assay, STAT6; conditions: FP competition, 5 nM fluorescein-labeled tracer, 200 nM protein, PBS pH7.4; read-out: Binding STAT6
T1 sequence (P42226 1-847): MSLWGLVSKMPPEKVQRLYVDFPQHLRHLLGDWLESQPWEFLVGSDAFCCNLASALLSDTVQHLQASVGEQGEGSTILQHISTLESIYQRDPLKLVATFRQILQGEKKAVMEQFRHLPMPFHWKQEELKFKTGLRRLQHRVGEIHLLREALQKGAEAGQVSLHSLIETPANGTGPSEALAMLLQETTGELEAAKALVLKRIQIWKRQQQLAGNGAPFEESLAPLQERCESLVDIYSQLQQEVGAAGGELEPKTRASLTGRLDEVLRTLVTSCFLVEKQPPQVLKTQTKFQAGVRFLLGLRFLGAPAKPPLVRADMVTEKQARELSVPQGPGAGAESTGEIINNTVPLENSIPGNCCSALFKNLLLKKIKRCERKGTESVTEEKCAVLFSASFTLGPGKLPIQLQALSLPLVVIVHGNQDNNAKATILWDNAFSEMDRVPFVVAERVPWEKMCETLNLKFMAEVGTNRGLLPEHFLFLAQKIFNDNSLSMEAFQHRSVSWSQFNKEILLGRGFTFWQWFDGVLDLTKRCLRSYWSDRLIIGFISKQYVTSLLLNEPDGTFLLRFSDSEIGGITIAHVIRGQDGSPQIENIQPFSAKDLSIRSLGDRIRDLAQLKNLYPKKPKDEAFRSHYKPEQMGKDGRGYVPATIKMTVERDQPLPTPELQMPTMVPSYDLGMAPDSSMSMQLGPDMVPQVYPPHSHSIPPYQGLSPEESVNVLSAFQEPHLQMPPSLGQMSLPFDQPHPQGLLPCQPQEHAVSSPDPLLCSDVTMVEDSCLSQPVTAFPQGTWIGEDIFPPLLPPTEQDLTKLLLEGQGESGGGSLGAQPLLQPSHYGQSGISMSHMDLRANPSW
How it was run: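 Competitive FP read-out with 5 nM fluorescein-labeled tracer and 200 nM STAT5 or STAT6 protein in PBS pH 7.4 containing 0.01% BGG, 0.01% Tween-20 and 2 mM DTT. Plates were shaken 15 min, then equilibrated 1 h at room temperature; inhibition constants came from nonlinear curve fitting.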

[2] = biological target: T2, STAT5A (Homo sapiens, UniProt P42229); test: Fluorescence polarization (FP) binding assay, STAT5A; conditions: FP competition, 5 nM fluorescein-labeled tracer, 200 nM protein, PBS pH7.4
T2 sequence (P42229 1-794): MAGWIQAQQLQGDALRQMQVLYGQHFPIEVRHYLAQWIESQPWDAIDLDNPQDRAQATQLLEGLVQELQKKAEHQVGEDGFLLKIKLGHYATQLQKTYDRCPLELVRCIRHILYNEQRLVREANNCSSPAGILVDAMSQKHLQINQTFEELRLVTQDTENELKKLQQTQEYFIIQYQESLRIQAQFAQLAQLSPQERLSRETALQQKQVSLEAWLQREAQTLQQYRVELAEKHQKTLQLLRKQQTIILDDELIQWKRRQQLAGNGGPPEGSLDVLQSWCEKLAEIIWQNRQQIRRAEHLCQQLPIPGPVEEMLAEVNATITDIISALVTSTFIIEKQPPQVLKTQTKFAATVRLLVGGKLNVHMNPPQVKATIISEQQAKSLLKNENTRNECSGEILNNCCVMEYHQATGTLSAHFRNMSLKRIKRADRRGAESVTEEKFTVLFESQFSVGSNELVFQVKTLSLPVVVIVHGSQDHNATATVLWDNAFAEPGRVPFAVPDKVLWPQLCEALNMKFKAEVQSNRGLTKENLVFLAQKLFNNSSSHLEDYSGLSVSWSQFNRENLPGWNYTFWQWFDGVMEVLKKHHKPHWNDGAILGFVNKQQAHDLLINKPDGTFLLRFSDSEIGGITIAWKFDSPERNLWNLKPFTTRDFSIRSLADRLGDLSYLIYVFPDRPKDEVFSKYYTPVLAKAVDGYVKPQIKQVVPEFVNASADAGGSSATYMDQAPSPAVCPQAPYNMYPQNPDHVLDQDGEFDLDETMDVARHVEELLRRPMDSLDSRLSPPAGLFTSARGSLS
Method: Evaluation of the activity of the inhibitors may be accomplished by fluorescence polarization (FP) experiments. A representative general protocol is the following:
Fluorescence polarization (FP) experiments are performed in black round-bottom plates using the CLARIOstar microplate reader. To each well, fluorescein-labeled tracer and STAT5 or STAT6 protein are added in assay buffer. […] The inhibition constants are determined as the concentration of the STAT5 or STAT6 at which 50% of the ligand is bound.
Fluorescence polarization (FP) experiments were performed in 96-well, black round-bottom plates (Microfluor 2, Fisher Scientific) using the CLARIOstar microplate reader (BMG Labtech). To each well, 5 nM of fluoresceinlabeled tracer and 200 nM of STAT5 and/or STAT6 protein were added to a final volume of 100 μl in the assay buffer (PBS pH7.4+0.01% BGG+0.01% Tween-20, 2 mM DTT). The plate was mixed on a shaker for 15 m and incubated at room temperature for 1 h to reach equilibrium. […] All experimental data were analyzed using Prism 8.0 software (GraphPad Software), and the inhibition constants were determined by nonlinear curve fitting as the concentration of the STAT5 and/or STAT6 at which 50% of the ligand is bound.

Structure (SMILES) | Ki [1] [µM] | Ki [2] [µM]
CC(=O)N1CC[C@H]2CC[C@@H](C(=O)NC(c3ccccc3)c3ccccc3)N2C(=O)[C@@H](NC(=O)c2cc3cc(C(F)(F)P(=O)(O)O)ccc3[nH]2)C1 [Compound 3, ((2-(((5S,8S,10aR)-3-acetyl-8-(benzhydrylcarbamoyl)-6-oxodecahydropyrrolo[1,2-a][1,5]diazocin-5-yl)carbamoyl)-1H-indol-5-yl)difluoromethyl)phosphonic acid] | 1 to 10 | > 10
CC(=O)N1CC[C@H]2CC[C@@H](C(=O)N(C)C(c3ccccc3)c3ccccc3)N2C(=O)[C@@H](NC(=O)c2cc3cc(C(F)(F)P(=O)(O)O)ccc3[nH]2)C1 [Compound 7, ((2-(((5S,8S,10aR)-3-acetyl-8-(benzhydryl(methyl)carbamoyl)-6-oxodecahydropyrrolo[1,2-a][1,5]diazocin-5-yl)carbamoyl)-1H-indol-5-yl)difluoromethyl)phosphonic acid] | 1 to 10 | > 10
NCCCC[C@H](NC(=O)/C=C/c1ccc(C(F)(F)P(=O)(O)O)cc1)C(=O)N1CCC[C@H]1C(=O)N1CCc2ccccc2C1 [Compound 8, ((4-((E)-3-(((S)-6-amino-1-oxo-1-((S)-2-(1,2,3,4-tetrahydroisoquinoline-2-carbonyl)pyrrolidin-1-yl)hexan-2-yl)amino)-3-oxoprop-1-en-1-yl)phenyl)difluoromethyl)phosphonic acid] | > 10 | > 10
NCCCC[C@H](NC(=O)c1cc2cc(C(F)(F)P(=O)(O)O)ccc2[nH]1)C(=O)N1CCC[C@H]1C(=O)N1CCc2ccccc2C1 [Compound 9, ((2-(((S)-6-amino-1-oxo-1-((S)-2-(1,2,3,4-tetrahydroisoquinoline-2-carbonyl)pyrrolidin-1-yl)hexan-2-yl)carbamoyl)-1H-indol-5-yl)difluoromethyl)phosphonic acid] | 1 to 10 | > 10
CC(C)(C)[C@H](NC(=O)c1cc2cc(C(F)(F)P(=O)(O)O)ccc2[nH]1)C(=O)N1CCC[C@H]1C(=O)N[C@H]1CCCc2ccccc21 [Compound 11, ((2-(((S)-3,3-dimethyl-1-oxo-1-((S)-2-(((S)-1,2,3,4-tetrahydronaphthalen-1-yl)carbamoyl)pyrrolidin-1-yl)butan-2-yl)carbamoyl)-1H-indol-5-yl)difluoromethyl)phosphonic acid] | 1 to 10 | > 10
CN(C)C(=O)CCN(C(=O)[C@@H]1CCCN1C(=O)[C@H](CCc1ccccc1)NC(=O)c1cc2cc(C(F)(F)P(=O)(O)O)ccc2s1)c1ccc(-c2nccs2)cc1 [Compound 328, ((2-(((S)-1-((S)-2-((3-(dimethylamino)-3-oxopropyl)(4-(thiazol-2-yl)phenyl)carbamoyl)pyrrolidin-1-yl)-1-oxo-4-phenylbutan-2-yl)carbamoyl)benzo[b]thiophen-5-yl)difluoromethyl)phosphonic acid] |  | 0.1 to 1

More lines, now with the values ahead:

Ki [1] [µM] | Ki [2] [µM] | Structure (SMILES)
0.1 to 1 | > 10 | CC(C)(C)[C@H](NC(=O)/C=C/c1ccc(C(F)(F)P(=O)(O)O)cc1)C(=O)N1CCC[C@H]1C(=O)N(c1ccccc1)c1ccc(I)cc1 [Compound 1, (difluoro(4-((E)-3-(((S)-1-((S)-2-((4-iodophenyl)(phenyl)carbamoyl)pyrrolidin-1-yl)-3,3-dimethyl-1-oxobutan-2-yl)amino)-3-oxoprop-1-en-1-yl)phenyl)methyl)phosphonic acid]
0.1 to 1 | 1 to 10 | CC(C)(C)[C@H](NC(=O)c1cc2cc(C(F)(F)P(=O)(O)O)ccc2[nH]1)C(=O)N1CCC[C@H]1C(=O)N(c1ccccc1)c1ccc(I)cc1 [Compound 2, (difluoro(2-(((S)-1-((S)-2-((4-iodophenyl)(phenyl)carbamoyl)pyrrolidin-1-yl)-3,3-dimethyl-1-oxobutan-2-yl)carbamoyl)-1H-indol-5-yl)methyl)phosphonic acid]
> 10 | > 10 | CC(=O)N1CC[C@H]2CC[C@@H](C(=O)NC(c3ccccc3)c3ccccc3)N2C(=O)[C@@H](NC(=O)/C=C/c2ccc(C(F)(F)P(=O)(O)O)cc2)C1 [Compound 5, ((4-((E)-3-(((5S,8S,10aR)-3-acetyl-8-(benzhydrylcarbamoyl)-6-oxodecahydropyrrolo[1,2-a][1,5]diazocin-5-yl)amino)-3-oxoprop-1-en-1-yl)phenyl)difluoromethyl)phosphonic acid]
1 to 10 | > 10 | CC(=O)N1CC[C@H]2CC[C@@H](C(=O)Nc3ccc(I)cc3)N2C(=O)[C@@H](NC(=O)/C=C/c2ccc(C(F)(F)P(=O)(O)O)cc2)C1 [Compound 6, ((4-((E)-3-(((5S,8S,10aR)-3-acetyl-8-((4-iodophenyl)carbamoyl)-6-oxodecahydropyrrolo[1,2-a][1,5]diazocin-5-yl)amino)-3-oxoprop-1-en-1-yl)phenyl)difluoromethyl)phosphonic acid]
1 to 10 | > 10 | CC(C)(C)[C@H](NC(=O)c1cc2cc(C(F)(F)P(=O)(O)O)ccc2[nH]1)C(=O)N1CCC[C@H]1C(=O)N[C@@H]1CCCc2ccccc21 [Compound 10, ((2-(((S)-3,3-dimethyl-1-oxo-1-((S)-2-(((R)-1,2,3,4-tetrahydronaphthalen-1-yl)carbamoyl)pyrrolidin-1-yl)butan-2-yl)carbamoyl)-1H-indol-5-yl)difluoromethyl)phosphonic acid]
 | 1 to 10 | CN(C)C(=O)CCN(C(=O)[C@@H]1CCCN1C(=O)[C@H](Cc1ccc(C(F)(F)F)cc1)NC(=O)c1cc2cc(C(F)(F)P(=O)(O)O)ccc2s1)c1ccc(-c2nccs2)cc1 [Compound 327, ((2-(((S)-1-((S)-2-((3-(dimethylamino)-3-oxopropyl)(4-(thiazol-2-yl)phenyl)carbamoyl)pyrrolidin-1-yl)-1-oxo-3-(4-(trifluoromethyl)phenyl)propan-2-yl)carbamoyl)benzo[b]thiophen-5-yl)difluoromethyl)phosphonic acid]
 | 1 to 10 | CN(C)C(=O)CCN(C(=O)[C@@H]1CCCN1C(=O)[C@H](Cc1ccc2ccccc2c1)NC(=O)c1cc2cc(C(F)(F)P(=O)(O)O)ccc2s1)c1ccc(-c2nccs2)cc1 [Compound 329, ((2-(((S)-1-((S)-2-((3-(dimethylamino)-3-oxopropyl)(4-(thiazol-2-yl)phenyl)carbamoyl)pyrrolidin-1-yl)-3-(naphthalen-2-yl)-1-oxopropan-2-yl)carbamoyl)benzo[b]thiophen-5-yl)difluoromethyl)phosphonic acid]
